Data from patent US20190175691A1, “METHODS FOR DETECTING AND MODULATING THE EMBRYONIC-FETAL TRANSITION IN MAMMALIAN SPECIES” (BioTime, Inc., priority 2016, published 2019).
Starred links: 1 amine or outer side, 2 acyl side, 3 side chain; linkers in the order of their positions; H or OH if unused. Positions of bridges follow the written chain, without caps; N, C: chain ends. Non-standard residues stand in square brackets, D forms with d. Residues, ends and D or L forms follow the SMILES beside them. Chains are numbered I, II in the order given. Actinocin(9to1) = Cc1c2oc3c(C)ccc(C(=O)[*:1])c3nc-2c(C(=O)[*:2])c(N)c1=O; NMeV = CN[C@H](C(=O)O)C(C)C; Sar = CNCC(=O)O

tested on: COX7A1 transcript; test: Screen for iTR factors: reduction of COX7A1 transcript in cancer cell lines; assay type: cell-based; conditions: Lung (A549), breast (MCF7), and prostate (PC3) cancer cell lines
Excerpt: Values under cell lines represent proportional decreased values for COX7A1 transcript in the cell line.
Lung (A549), breast (MCF7), and prostate (PC3) cancer cell lines were exposed to diverse factors including biologically active small molecules as well as RNAi directed to specific genes and the relative reduction of levels of COX7A1 transcript was used as a marker of iTR.

Row | Molecule | COX7A1 expression (relative reduction of COX7A1 transcript as marker of iTR)
1 | COc1cc(/C=C/C(=O)CC(=O)/C=C/c2ccc(O)c(OC)c2)ccc1O [curcumin] | reduce COX7A1 expression
2 | C[C@@H]1C[C@H]2O[C@@H]2/C=C\C=C\C(=O)Cc2c(Cl)c(O)cc(O)c2C(=O)O1 [radicocol] | reduce COX7A1 expression
3 | CCn1cc(-c2ccnc3[nH]c(-c4cccc(CN(C)C)c4)cc23)c(-c2ccc(NC(=O)N(C)C)cc2)n1 [GSK1070916] | reduce COX7A1 expression
4 | O=C(O)[C@]1(Cc2cccc(Nc3nccs3)n2)CC[C@@H](Oc2cccc(Cl)c2F)CC1 [MK-5108] | reduce COX7A1 expression
5 | CO[C@H]1/C=C\C=C(/C)C(=O)NC2=CC(=O)C(NCCN(C)C)=C(C[C@@H](C)C[C@H](OC)[C@H](O)[C@@H](C)/C=C(\C)[C@@H]1OC(N)=O)C2=O [alvespimycin] | reduce COX7A1 expression

tested on: COX7A1 transcript; test: Screen for iCM factors: increase of COX7A1 transcript in cancer cell lines; assay type: cell-based; conditions: Lung (A549), breast (MCF7), and prostate (PC3) cancer cell lines
Excerpt: Lung (A549), breast (MCF7), and prostate (PC3) cancer cell lines were exposed to diverse factors including biologically active small molecules as well as RNAi directed to specific genes and the relative increase in levels of COX7A1 transcript was used as a marker of iCM.

Row | Molecule | COX7A1 expression (relative increase of COX7A1 transcript as marker of iCM)
6 | CCc1c2c(nc3ccc(O)cc13)-c1cc3c(c(=O)n1C2)COC(=O)[C@]3(O)CC [SN-38] | increased COX7A1 expression
7 | COc1cc([S+](C)[O-])ccc1-c1nc2ncccc2[nH]1 (stereo not shown) [sulmazole] | increased COX7A1 expression
8 | CCN(CC)Cc1ccc2cc(COC(=O)Nc3ccc(C(=O)NO)cc3)ccc2c1 [givinostat] | increased COX7A1 expression
9 | O=C1c2c(O)ccc(O)c2C(=O)c2c(NCCNCCO)ccc(NCCNCCO)c21 [mitoxantrone] | increased COX7A1 expression
10 | COc1cccc2c1C(=O)c1c(O)c3c(c(O)c1C2=O)C[C@@](O)(C(=O)CO)C[C@@H]3O[C@H]1C[C@H](N)[C@H](O)[C@H](C)O1 [doxorubicin] | increased COX7A1 expression
11 | CN1CC[C@H](c2c(O)cc(O)c3c(=O)cc(-c4ccccc4Cl)oc23)[C@H](O)C1 [alvocidib] | increased COX7A1 expression
12 | CC(/C=C/C(=O)NO)=C\[C@@H](C)C(=O)c1ccc(N(C)C)cc1 [trichostatin-A] | increased COX7A1 expression
13 | Cc1c2oc3c(C)ccc(C(=O)N[C@@H]4C(=O)N[C@H](C(C)C)C(=O)N5CCC[C@H]5C(=O)N(C)CC(=O)N(C)[C@@H](C(C)C)C(=O)O[C@@H]4C)c3nc-2c(C(=O)N[C@@H]2C(=O)N[C@H](C(C)C)C(=O)N3CCC[C@H]3C(=O)N(C)CC(=O)N(C)[C@@H](C(C)C)C(=O)O[C@@H]2C)c(N)c1=O [dactinomycin] (I: T[dV]P[Sar][NMeV] / II: T[dV]P[Sar][NMeV]; ester I:1-I:C, II:1-II:C; linker I:N-II:N via Actinocin(9to1)) | increased COX7A1 expression
14 | Cc1onc(-c2c(F)cccc2Cl)c1C(=O)N[C@@H]1C(=O)N2[C@@H]1SC(C)(C)[C@@H]2C(=O)O [flucloxacillin] | increased COX7A1 expression
15 | calyculin | increased COX7A1 expression
16 | CC1(C)[C@@H](OC(=O)CCC(=O)O)CC[C@]2(C)[C@H]3C(=O)C=C4[C@@H]5C[C@@](C)(C(=O)O)CC[C@]5(C)CC[C@@]4(C)[C@]3(C)CC[C@@H]12 [carbenoxolone] | increased COX7A1 expression
17 | COc1cc2ncnc(Nc3ccc(F)c(Cl)c3)c2cc1OCCCN1CCOCC1 [gefitinib] | increased COX7A1 expression
18 | COc1cc([C@@H]2c3cc4c(cc3[C@@H](O[C@@H]3O[C@@H]5CO[C@@H](c6cccs6)O[C@H]5[C@H](O)[C@H]3O)[C@H]3COC(=O)[C@H]23)OCO4)cc(OC)c1O [teniposide] | increased COX7A1 expression
19 | CN[C@@H]1C[C@H]2O[C@@](C)([C@@H]1OC)n1c3ccccc3c3c4c(c5c6ccccc6n2c5c31)C(=O)NC4 [staurosporine] | increased COX7A1 expression
20 | COc1cccc2c1C(=O)c1c(O)c3c(c(O)c1C2=O)C[C@@](O)(C(C)=O)C[C@@H]3O[C@H]1C[C@H](N)[C@H](O)[C@H](C)O1 [daunorubicin] | increased COX7A1 expression
21 | CC[C@@H]1C(=O)N(C)c2cnc(Nc3ccc(C(=O)NC4CCN(C)CC4)cc3OC)nc2N1C1CCCC1 [BI 2536] | increased COX7A1 expression
22 | CC(C)[C@]12O[C@H]1[C@@H]1O[C@]13[C@]1(O[C@H]1C[C@H]1C4=C(CC[C@@]13C)C(=O)OC4)[C@@H]2O [triptolide] | increased COX7A1 expression

tested on: adult-derived MDW fibroblasts; test: Scratch test on confluent MDW fibroblast monolayer; assay type: cell-based; conditions: MDW passage 5, 1.5 mm scratch, 24 hours; 0.5 mM valproic acid, 10 ng/mL AMH, 20 ng/mL GFER; control 20%
Procedure: The identification of the secreted protein iTR factors GFER and AMH as well as the agent valproic acid, provides a novel cocktail of factors to generate iTR in vitro as well as in vivo. To determine the effects of the factors, cultured adult-derived MDW fibroblasts as well as umbilical cord-derived MSCs (MSCwj) were treated with varying concentrations of the factors and the rate of growth and regrowth following a scratch test are performed.
(§1) The fibroblast line MDW (passage 5) is seeded in multiple wells of a 6 well plate and cultured to confluence. A 1.5 mm “scratch” was introduced onto the monolayer using a 200 ul pipette tip, thereby denuding the fibroblasts from the culture surface. Factors including 0.5 mM valproic acid, 10 ng/mL AMH, and 20 ng/mL GFER are added to the growth medium which as DMEM medium supplemented with 10% FBS. 24 hours later, the % of the denuded surface was determined by phase contrast microscopy. […] Due to the lability and diffusion of the factors when administered in vivo, the formulation of the factors alone or in combination in a hydrogel such as crosslinked hyaluronic acid or crosslinked hyaluronic acid and collagen provides a preferred method of delivering the factors to increase tissue regeneration in animals. Alternatively, umbilical cord-derived MSCs (MSCwj) and adult skin fibroblasts (MDW) each of which express fetal/adult markers such as COX7A1 are treated with the secreted form of GFER alone at concentrations of 0, 10.0 and 100 ng/mL in DMEM medium supplemented with 10% FBS an AMH

Row | Molecule | regeneration (coverage of the denuded wounded zone) [%]
23 | CCCC(CCC)C(=O)O [valproic acid] | 25
24 | GFER: GFER (Augmenter of Liver Regeneration (ALR)), secreted protein iTR factor | 28
25 | AMH: anti-Mullerian hormone (AMH), secreted protein iTR factor (protein, UniProt P03971 452-560, looked up) Muellerian-inhibiting factor: SAGATAADGPCALRELSVDLRAERSVLIPETYQANNCQGVCGWPQSDRNPRYGNHVVLLLKMQVRGAALARPPCCVPTAYAGKLLISLSEERISAHHVPNMVATECGCR | 68

tested on: umbilical cord-derived MSCs (MSCwj) and adult skin fibroblasts (MDW); test: Percent confluency after 80 hours with secreted GFER; assay type: cell-based; conditions: secreted GFER 0, 10.0 and 100 ng/mL, DMEM 10% FBS
Procedure: as §1
d cultured for 80 hours and the % confluency is determined.

Row | Molecule | confluency achieved
26 | GFER: GFER (Augmenter of Liver Regeneration (ALR)), secreted protein iTR factor | dose-dependent increase in confluency

tested on: MDW adult-derived skin fibroblasts; test: Illumina bead array expression of COX7A1 and COL1A1 in MDW fibroblasts; assay type: cell-based; conditions: MDW passage 6-7, 6 days, mRNA for cMYC or SOX2 + 0.5 mM valproic acid

Row | Molecule | expression of COX7A1 | expression of the fibrosis marker COL1A1
27 | CCCC(CCC)C(=O)O [valproic acid] | reduced expression of COX7A1 | decreased expression of the fibrosis marker COL1A1
